In experiment [1] the test system is oat, wild. Briefly: Test C pre-/postemergence herbicide test. In kind it is in vivo, Avena fatua. Put shortly: (§1)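 Compound solutions contained surfactant in a non-phytotoxic solvent. These were sprayed onto pots of loam/sand sown with seeds, and onto young plants (2 to 18 cm, 1- to 4-leaf) in sphagnum peat–vermiculite mix. Visual injury scores (0 none, 100 complete control) were recorded after 13 to 15 days.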

In experiment [2] the test system is blackgrass. As to the kind of experiment: Test A postemergence herbicide test. It is filed as in vivo, Alopecurus myosuroides. Put shortly: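 Visual injury rating, 0 (no effect) to 100 (complete control), versus untreated controls ~10 days after treatment. Postemergence spray applied at one- to two-leaf stage, plants 2–10 cm tall, potted in loam soil/sand. Greenhouse-held.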

Experiment [3] relates to foxtail, giant. Briefly: Test C pre-/postemergence herbicide test. It is filed as in vivo, Setaria faberii. The method, boiled down: as §1
Experiment [4] has as its system morningglory. As to the kind of experiment: Test C pre-/postemergence herbicide test. It is filed as in vivo, Ipomoea coccinea. Put shortly:
as §1

In experiment [5] the test system is kochia. As to the kind of experiment: Test C pre-/postemergence herbicide test. It is filed as in vivo, Kochia scoparia. Particulars: for Kochia plant response rating: scale 0 to 100, 0 is no effect and 100 is complete control. Put shortly: as §1
For experiment [6], the system named is galium. As to the kind of experiment: Test C pre-/postemergence herbicide test. It is filed as in vivo, Galium aparine. Put shortly:
as §1

Experiment [7] relates to pigweed. As to the kind of experiment: Test A pre-/postemergence herbicide test. In kind it is in vivo, Amaranthus retroflexus. Put shortly: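 Formulated compound (non-phytotoxic solvent, surfactant) sprayed pre- onto soil of seeded loam/sand pots or post- onto seedlings at 1–2 leaves; ~10 d greenhouse; 0–100 visual control rating versus untreated.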
Setting [8] is: Postemergence, 31 g ai/ha, scale 0 to 100 (0 no effect, 100 complete control).
[9] abbreviates: Postemergence, 62 g ai/ha, scale 0 (no effect) to 100 (complete control).
Setting [10] is: Postemergence, 125 g ai/ha, scale 0 to 100 (0 no effect, 100 complete control).
Setting [11] is: Postemergence, 250 g ai/ha, scale 0 to 100 (0 no effect, 100 complete control).
[12] abbreviates: Preemergence, 31 g ai/ha, scale 0 to 100, 0 is no effect and 100 is complete control.
[13] abbreviates: Preemergence, 62 g ai/ha, scale 0 to 100 (0 no effect, 100 complete control).
Setting [14] is: Preemergence, 125 g ai/ha, scale 0 to 100 (0 no effect, 100 complete control).
[15] abbreviates: Postemergence, 500 g ai/ha, 0 to 100 scale (0 no effect, 100 complete control).
Setting [16] is: Preemergence, 62 g ai/ha, scale 0 to 100.
Setting [17] is: Preemergence, 31 g ai/ha, scale 0 to 100 (0 no effect, 100 complete control).
[18] abbreviates: Preemergence, 250 g ai/ha, scale 0 to 100 (0 no effect, 100 complete control).
Where [19] appears, read: Postemergence, 125 g ai/ha, 0 to 100 scale, 0 no effect, 100 complete control.
Setting [20] is: Preemergence, 125 g ai/ha, visual rating on 0 to 100 scale (0 no effect, 100 complete control).
[21] abbreviates: preemergence, 500 g ai/ha, 0 to 100 scale.

Consider `O=C1NCC(c2cc(F)cc(F)c2)C1C(=O)Nc1ccc(F)cc1F` (racemic) [Compound 278], for which the “Plant response rating, Oat, Wild” value in experiment [1] (setting [8]), in experiment [1] (setting [9]), in experiment [1] (setting [10]) and in experiment [1] (setting [11]) was 0 each time. Moreover, the “Plant response rating, Blackgrass” value in experiment [2] (125 g ai/ha, 0 to 100 scale, 0 is no effect, 100 is complete control) was determined as 30; in experiment [2] (500 g ai/ha, 0 to 100 scale (0 no effect, 100 complete control)), 60. Further, the “Plant response rating, Foxtail, Giant” value in experiment [3] (setting [8]) came out at 10; in experiment [3] (setting [9]), 10; in experiment [3] (setting [10]), 40; in experiment [3] (setting [11]) it was 75; in experiment [3] (setting [14]), 95. The “Foxtail, Giant plant response rating” value in experiment [3] (setting [12]) was determined as 80; in experiment [3] (setting [13]), 90. Besides, in experiment [3] (Preemergence, 250 g ai/ha), the “Plant response rating (scale of 0 to 100), Foxtail, Giant” value was 100. In addition, the “Plant response rating, Morningglory” value worked out at 0 in experiment [4] (setting [8]); 0 in experiment [4] (setting [9]); 45 in experiment [4] (setting [10]); 0 in experiment [4] (setting [11]); 0 in experiment [4] (setting [14]). Further, the “Morningglory plant response rating” value in experiment [4] (setting [12]) and in experiment [4] (setting [13]) was 0 in each case. The “Plant response rating (scale of 0 to 100), Morningglory” value in experiment [4] (Preemergence, 250 g ai/ha) is 0. Besides, the “Plant response rating, Kochia” value in experiment [5] (setting [8]) is listed as 0; in experiment [5] (setting [9]), 0; in experiment [5] (setting [10]), 0; in experiment [5] (setting [11]) it was 5. Moreover, the “Plant response rating, Galium” value in experiment [6] (setting [8]) is 0; in experiment [6] (setting [9]) it was 0; in experiment [6] (setting [10]) it was 5; in experiment [6] (setting [11]) it was 20; in experiment [6] (setting [14]), 0. The “Galium plant response rating” value in experiment [6] (setting [12]) and in experiment [6] (setting [13]) was 0 in each case. Also, the “Plant response rating (scale of 0 to 100), Galium” value in experiment [6] (Preemergence, 250 g ai/ha) amounted to 5. Also, the “Plant response rating, Pigweed” value is given as 0 in experiment [7] (Postemergence, 125 g ai/ha, visual rating on 0 to 100 scale (0 no effect, 100 complete control), approx. 10 days); 10 in experiment [7] (setting [15]); 0 in experiment [7] (Preemergence, 125 g ai/ha, 0 to 100 scale where 0 is no effect and 100 is complete control); 0 in experiment [7] (preemergence, 500 g ai/ha, 0 to 100 scale, 0 is no effect and 100 is complete control).
With `O=C1NCC(c2ccc3c(c2)OC(F)(F)O3)C1C(=O)Nc1cccc(F)c1F` (stereo not drawn) [Compound 62], the results for the “Plant response rating, Oat, Wild” value in experiment [1] (setting [16]) and in experiment [1] (setting [14]) were 40 and 50, respectively. In addition, the “Foxtail, Giant plant response rating” value in experiment [3] (setting [17]) turned out to be 65. The entries for the “Plant response rating, Foxtail, Giant” value in experiment [3] (setting [16]), in experiment [3] (setting [14]) and in experiment [3] (setting [18]) were 80, 85 and 85, respectively. The “Plant response rating, Morningglory” value came to 10 in experiment [4] (setting [16]) and 15 in experiment [4] (setting [14]). For the same compound, the entries for the “Plant response rating, Kochia” value in experiment [5] (setting [16]) and in experiment [5] (setting [14]) were 0 and 15, respectively. Also, the “Galium plant response rating” value in experiment [6] (setting [17]) worked out at 0. The “Plant response rating, Galium” value in experiment [6] (setting [16]) is 0; in experiment [6] (setting [14]), 85; in experiment [6] (setting [18]), 90. Moreover, the “Plant response rating, Pigweed” value in experiment [7] (setting [19]) came to 30; in experiment [7] (setting [15]) it was 70; in experiment [7] (setting [21]), 30. Moreover, the “Pigweed plant response rating” value in experiment [7] (setting [20]) was 0.
`O=C1NCC(c2cccc(Br)c2)C1C(=O)Nc1cccc(F)c1F` (stereo not drawn) [Compound 64]: the “Plant response rating, Oat, Wild” value in experiment [1] (setting [16]) and in experiment [1] (setting [14]) was 10 throughout. Moreover, in experiment [3] (setting [17]), the “Foxtail, Giant plant response rating” value is given as 50. Moreover, the “Plant response rating, Foxtail, Giant” value is listed as 80 in experiment [3] (setting [16]), 90 in experiment [3] (setting [14]) and 98 in experiment [3] (setting [18]). Further, the “Plant response rating, Morningglory” value in experiment [4] (setting [16]) and in experiment [4] (setting [14]) was 20 throughout. For the same compound, the “Plant response rating, Kochia” value came out at 0 in experiment [5] (setting [16]) and 20 in experiment [5] (setting [14]). For the same compound, in experiment [6] (setting [17]), the “Galium plant response rating” value is reported as 0. Also, the “Plant response rating, Galium” value in experiment [6] (setting [16]), in experiment [6] (setting [14]) and in experiment [6] (setting [18]) was 0 in each case. In addition, the “Plant response rating, Pigweed” value in experiment [7] (setting [19]) is recorded as 0; in experiment [7] (setting [15]) it was 30; in experiment [7] (setting [21]), 0. For the same compound, in experiment [7] (setting [20]), the “Pigweed plant response rating” value is recorded as 0.
Consider `O=C1NCC(c2cccc(Br)c2)C1C(=O)Nc1ccccc1F` (stereo not drawn) [Compound 66], for which, in experiment [1] (setting [12]), the “Oat, Wild plant response rating” value came to 0. In addition, the “Plant response rating, Oat, Wild” value in experiment [1] (setting [16]) and in experiment [1] (setting [14]) was 0 in each case. Moreover, the “Foxtail, Giant plant response rating” value in experiment [3] (setting [12]) is given as 20. The “Plant response rating, Foxtail, Giant” value in experiment [3] (setting [16]) is 75; in experiment [3] (setting [14]), 85; in experiment [3] (setting [18]) it was 95. Besides, in experiment [4] (setting [12]), the “Morningglory plant response rating” value was determined as 15. Further, the entries for the “Plant response rating, Morningglory” value in experiment [4] (setting [16]) and in experiment [4] (setting [14]) were 25 and 35, respectively. Also, the “Kochia plant response rating” value in experiment [5] (Preemergence, 31 g ai/ha) was found to be 0. For the same compound, the “Plant response rating, Kochia” value in experiment [5] (setting [16]) is given as 0; in experiment [5] (setting [14]) it was 10. Besides, in experiment [6] (setting [12]), the “Galium plant response rating” value is 0. For the same compound, the “Plant response rating, Galium” value in experiment [6] (setting [16]), in experiment [6] (setting [14]) and in experiment [6] (setting [18]) was 0 throughout. In addition, the “Plant response rating, Pigweed” value in experiment [7] (setting [19]), in experiment [7] (setting [15]) and in experiment [7] (setting [21]) was 0 throughout. For the same compound, the “Pigweed plant response rating” value in experiment [7] (setting [20]) is on record as 0.
As for `O=C1NCC(c2cccc(OC(F)(F)F)c2)C1C(=O)Nc1cccc(F)c1F` (stereo not drawn) [Compound 68], the “Plant response rating, Oat, Wild” value in experiment [1] (setting [14]) is 0. Moreover, the “Foxtail, Giant plant response rating” value in experiment [3] (setting [12]) is on record as 85. For the same compound, the results for the “Plant response rating, Foxtail, Giant” value in experiment [3] (setting [16]), in experiment [3] (setting [14]) and in experiment [3] (setting [18]) were 90, 90 and 95, respectively. Besides, the “Morningglory plant response rating” value in experiment [4] (setting [12]) amounted to 0. Also, the figures for the “Plant response rating, Morningglory” value in experiment [4] (setting [16]) and in experiment [4] (setting [14]) were 0 and 15, respectively. In addition, in experiment [5] (Preemergence, 31 g ai/ha), the “Kochia plant response rating” value was 0. The “Plant response rating, Kochia” value in experiment [5] (setting [16]) and in experiment [5] (setting [14]) was 0 throughout. Also, in experiment [6] (setting [12]), the “Galium plant response rating” value is recorded as 0. Further, the “Plant response rating, Galium” value is reported as 5 in experiment [6] (setting [16]), 90 in experiment [6] (setting [14]) and 90 in experiment [6] (setting [18]). Also, the results for the “Plant response rating, Pigweed” value in experiment [7] (setting [19]), in experiment [7] (setting [15]) and in experiment [7] (setting [21]) were 40, 60 and 30, respectively. The “Pigweed plant response rating” value in experiment [7] (setting [20]) worked out at 0.

These data come from US10294202B2, “Pyrrolidinones as herbicides” (FMC Corporation, priority 2013, dated 2019).
